Reference: patent publication EP2112152A1, “Dihydropteridinones as Plk Inhibitors” (GPC Biotech AG, priority 2008, dated 2009)
Like-named read-outs stand apart in the source and are kept apart here. One block for each compound: values may come before it.

Key:
[1] = test system: ACHN; assay: SRB cell proliferation assay, ACHN; type: cell-based; conditions: Homo sapiens, 18-Cell Line Panel, kidney
Method: (§1) Cells were exposed to the test compounds at various concentrations appropriate to determine an IC50 for 72 hours. Cell proliferation was measured using the SRB assay according to Shekan et al (J Natl Cancer Inst (1990) 82, 1107-112) in order to estimate the IC50 values shown in Table 3. Briefly, cells were plated in 96 well dishes 24 hours prior to compound addition at the densities specified in Table 5.1. The assay was terminated with the addition of cold TCA to a final concentration of 10% after growth medium has been removed and the plates were incubated over night at 4°C. The plates were then washed 5 times with water and 100µl of a Sulforhodamine B solution (4%) was added to each well. The plates were then incubated for 10 minutes at room temperature before removal of unbound dye by washing with 1% acetic acid. The bound dye was solubilised with 10 mM Trizma base and the absorbance read at OD520.
(§2) Table 8.1: 18-Cell Line Panel

[2] = test system: SK-MEL-5; assay: SRB cell proliferation assay, SK-MEL-5; type: cell-based; conditions: Homo sapiens, 18-Cell Line Panel, melanoma
Method: as §1, §2

[3] = test system: OVCAR-3; assay: SRB cell proliferation assay, OVCAR-3; type: cell-based; conditions: Homo sapiens, 18-Cell Line Panel, ovary
Method: as §1, §2

[4] = test system: PC-3; assay: SRB cell proliferation assay, PC-3; type: cell-based; conditions: Homo sapiens, 18-Cell Line Panel, prostate
Method: as §1, §2

[5] = test system: HeLa; assay: SRB cell proliferation assay, HeLa; type: cell-based; conditions: Homo sapiens, 18-Cell Line Panel, cervix
Method: as §1, §2

[6] = test system: IMR-90; assay: SRB cell proliferation assay, IMR-90; type: cell-based; conditions: Homo sapiens
Method: (§3) We observed the surprising finding that compounds of the invention were useful in inhibiting proliferation of tumor cell lines (see Table 3).
as §1
(§4) Inhibitory activity of the compounds (IC) was calculated as % inhibition of cell proliferation compared to cells treated with the solvent (DMSO).
as §2

[7] = test system: NCI-H460; assay: SRB cell proliferation assay, NCI-H460; type: cell-based; conditions: Homo sapiens, 18-Cell Line Panel, NSCLC
Method: as §1, §2

[8] = test system: MDA-MB-468; assay: SRB cell proliferation assay, MDA-MB-468; type: cell-based; conditions: 18-Cell Line Panel; breast
Method: as §1, §2

[9] = test system: MDA-MB-231; assay: SRB cell proliferation assay, MDA-MB-231; type: cell-based; conditions: Homo sapiens, 18-Cell Line Panel, breast
Method: as §1, §2

[10] = test system: HCT 116; assay: SRB cell proliferation assay, HCT 116; type: cell-based; conditions: Homo sapiens
Method: as §3, §1, §4, §2

[11] = test system: A-431; assay: SRB cell proliferation assay, A-431; type: cell-based; conditions: Homo sapiens, 18-Cell Line Panel, skin
Method: as §1, §2

[12] = test system: A-375; assay: SRB cell proliferation assay, A-375; type: cell-based; conditions: Homo sapiens, 18-Cell Line Panel, melanoma
Method: as §1, §2

[13] = test system: SK-MEL-28; assay: SRB cell proliferation assay, SK-MEL-28; type: cell-based; conditions: Homo sapiens, 18-Cell Line Panel, melanoma
Method: as §1, §2

[14] = test system: A549; assay: SRB cell proliferation assay, A549; type: cell-based; conditions: Homo sapiens, 18-Cell Line Panel, lung
Method: as §1, §2

[15] = test system: COLO 205; assay: SRB cell proliferation assay, COLO 205; type: cell-based; conditions: Homo sapiens, 18-Cell Line Panel, colon
Method: as §1, §2

[16] = test system: SW620; assay: SRB cell proliferation assay, SW620; type: cell-based; conditions: Homo sapiens, SW-620; 18-Cell Line Panel; colon
Method: as §1, §2

[17] = test system: DU 145; assay: SRB cell proliferation assay, DU 145; type: cell-based; conditions: Homo sapiens, 18-Cell Line Panel, prostate, read-out: IC50 DU145
Method: as §1, §2

[18] = test system: HT-29; assay: SRB cell proliferation assay, HT-29; type: cell-based; conditions: Homo sapiens
Method: as §3, §1, §4, §2

[19] = molecular target: Plk1 (Homo sapiens, UniProt P53350); assay: Cellular Plk1 kinase activity: nucleophosmin (B23) Ser4 phosphorylation in HCT116 cells (MSD electrochemiluminescence); type: cell-based; set-up: host or cells: HCT116; conditions: 100 ng/ml nocodazole, 4 hours after compound addition, read-out: Biochemical IC50 Nucleophosmin assay
Plk1, sequence (P53350 whole entry, species assumed): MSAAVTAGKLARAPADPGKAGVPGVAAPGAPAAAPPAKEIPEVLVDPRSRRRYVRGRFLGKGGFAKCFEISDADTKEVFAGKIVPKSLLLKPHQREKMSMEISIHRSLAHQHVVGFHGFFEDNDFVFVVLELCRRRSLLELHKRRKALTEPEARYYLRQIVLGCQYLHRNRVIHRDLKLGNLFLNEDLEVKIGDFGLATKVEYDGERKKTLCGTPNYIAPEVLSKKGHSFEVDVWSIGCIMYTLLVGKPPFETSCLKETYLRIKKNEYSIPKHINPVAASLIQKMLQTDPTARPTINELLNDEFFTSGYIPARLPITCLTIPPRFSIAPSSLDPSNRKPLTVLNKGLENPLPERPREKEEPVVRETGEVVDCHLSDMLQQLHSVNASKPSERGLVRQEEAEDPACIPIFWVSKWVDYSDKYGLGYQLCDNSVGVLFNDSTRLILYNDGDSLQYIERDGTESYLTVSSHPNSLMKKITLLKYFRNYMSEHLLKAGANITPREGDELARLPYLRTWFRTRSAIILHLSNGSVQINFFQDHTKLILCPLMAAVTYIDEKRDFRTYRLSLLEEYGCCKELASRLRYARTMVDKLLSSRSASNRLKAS
Method: We observed the surprising finding that compounds of the invention were able to penetrate cell membranes and retained their activity as Plk1 inhibitors against native Plk1 expressed within living cancer cells.
Cellular Plk1 kinase activity was measured by quantification of nucleophosmin (B23) Ser4 phosphorylation in a cancer cell line. Nucleophosmin (B23) Ser4 is phosphorylated by Plk1, and this phosphorylation can be specifically detected by cross-reactivity of a phospho-Mek1/2 antibody that is able to recognizes a mitotic-specific phosphorylated form of nucleophosmin (B23) in a nocodazole dependent way (Zhang, H., Shi, X., Paddon, H., Hampong, M., Dai, W., and Pelech, S. (2004) B23/Nuleophosmin Serin 4 Phosphorylation Mediates Mitotic Functions of Polo-like Kinase 1. J. Biol. Chem., 279(34), 35726-35734).
Briefly, HCT116 cells (ATCC, Order No. CCL-247) were plated in 96 well dishes 24 hours prior to nocodazole treatment at 25 000 cells per well. Cells were then treated with 100 ng/ml nocodazole (Sigma-Aldrich, # M1404). 20 hours after nocodazole treatment, cells were exposed to the test compounds at various concentrations appropriate to determine an IC50. 4 hours after compound addition, medium was carefully removed and 120 µl of Complete Tris Lysis Buffer (R60TX; MSD, Gaithersburg MD) was added to each well. Samples were then stored at -20°C.
The level of nucleophosmin (B23) Ser4 phosphorylation in these cell lysis samples was estimated by electrochemiluminescence detection using the Meso Scale Discovery ("MSD") Technology Platform (MSD, Gaithersburg MD). The protocol used was as recommended by the manufacturer with the use of a phospho-Mek1/2 antibody (Cell Signalling, #9121) as primary antibody, and is as follows.
The cell lysates were thawed at room temperature and 40 µl were incubated on 96-well MULTI-ARRAY High Bind plates (L11XB; MSD) for 1.5 - 2 hours at room temperature. The supernatants were then removed and 150 µl of a 5% (w/v) solution of Blocker A (R93AA; MSD) in Tris Wash Buffer (R61TX; MSD) were added to each well. The plates were then incubated for 1 hour at room temperature before removal of the Blocker A solution and washed 4 times with 200 µl Tris Wash Buffer. 25 µl primary antibody (anti-phospho-MEK1/2, Cell Signalling, #9121, rabbit polyclonal), diluted 1:250 in a 1% (w/v) solution of Blocker A in Tris Wash Buffer, were added to each well. The plates were then incubated for 1 hour at room temperature before removal of the antibody solution and washed 4 times with 200 µl Tris Wash Buffer. Then, 25 µl of labelled secondary antibody (SULFO-TAG Goat Anti-Rabbit IgGAntibody (R32AB; MSD), diluted 1:500 in a 1% (w/v) solution of Blocker A in Tris Wash Buffer) were added to each well. The plates were then incubated for 1 hour at room temperature before removal of the antibody solution and washed 4 times with 200 µl Tris Wash Buffer. Then, […] of 1x Read Buffer T (R92TC; MSD) were carefully added to each well and the plates were quantitatively detected for each well with a SECTOR™ Imager 6000 (MSD).
Inhibitory activity of the compounds (IC) was calculated as % inhibition of nucleophosmin (B23) Ser4 phosphorylation compared to cells not treated with nocodazole.

[20] = test system: Abl, Akt1, Aur A, c-Kit, c-Raf, Cdk1/CycB, Chk1, FGFR3, Flt3, Fyn, IGF1-R, INSR, Lyn, MAPK-ERK1, p38a, PAK4, PKCalpha, Ret, ROCK2, RSK 1, c-Src, TIE2, and …; assay: Selectivity panel (Proteros), 23 other kinases; type: biochemical; conditions: tested at 1 mM in triplicates; each of the 23 other kinases
Method: Selected compound of the present invention were tested in a standard selectivity panel including Plk1 and 23 other kinases (Proteros biostructures GmbH, Martinsried/Munich, Germany), under conditions of non-disclosure, non-dissemination and non-use.
In brief, compounds 1, 13, 14, and 25 (see Table 1) were tested at 1 mM in triplicates against Plk1 as well as against Abl, Akt1, Aur A, c-Kit, c-Raf, Cdk1/CycB, Chk1, FGFR3, Flt3, Fyn, IGF1-R, INSR, Lyn, MAPK-ERK1, p38a, PAK4, PKCalpha, Ret, ROCK2, RSK 1, c-Src, TIE2, and VEGF-R2.

[21] = 72 hours, SRB assay, slow cycling cell line, read-out: CELLULAR IC50 IMR-90
[22] = HCT-116, 72 h, 72 hours, SRB assay, read-out: CELLULAR IC50 HCT 116
[23] = HT-29, 72 h, 72 hours, SRB assay, read-out: CELLULAR IC50 HT-29

Compound: CCC1C(=O)N(C)c2cnc(Nc3ccc(C(=O)NC4CCN(C)CC4)cc3OC)nc2N1C1CCCC1 (centres unmarked) [BI 2536, reference compound]
- IC50 [1]: < 1000 nM
- IC50 [2]: < 1000 nM
- IC50 [3]: < 1000 nM
- IC50 [4]: < 1000 nM
- IC50 [5]: < 1000 nM
- IC50 ([6]; 18-Cell Line Panel, lung, read-out: IC50 IMR-90): > 1000 nM
- IC50 [7]: < 1000 nM
- IC50 MDA-MB-468 [8]: plateau at ∼50%
- IC50 [9]: < 1000 nM
- IC50 ([10]; HCT-116, 18-Cell Line Panel, colon, read-out: IC50 HCT116): < 1000 nM
- IC50 [11]: < 1000 nM
- IC50 [12]: < 1000 nM
- IC50 [13]: < 1000 nM
- IC50 [14]: < 1000 nM
- IC50 [15]: < 1000 nM
- IC50 [16]: < 1000 nM
- IC50 [17]: < 1000 nM
- IC50 ([18]; HT-29, 18-Cell Line Panel, colon, read-out: IC50 HT-29): < 1000 nM

- IC50 [10, 22]: < 1000 nM
- IC50 [19]: < 100 nM
- IC50 [18, 23]: < 1000 nM
Compound: CCC1C(=O)N(C)c2cnc(Nc3ccc(C(=O)NC4CCN(C5CCN(Cc6ccccc6)CC5)CC4)cc3OC)nc2N1N(C)C (centres unmarked) [Compound 14, N-(1'-Benzyl-[1,4']bipiperidinyl-4-yl)-4-(8-dimethylamino-7-ethyl-5-methyl-6-oxo-5,6,7,8-tetrahydro-pteridin-2-ylamino)-3-methoxy-benzamide]
- IC50 [6, 21]: > 1000 nM
- all other kinases were inhibited [20]: less than 10%

- IC50 [10, 22]: < 1000 nM
- IC50 [19]: < 100 nM
- IC50 [18, 23]: < 1000 nM
Compound: CCC1C(=O)N(C)c2cnc(Nc3ccc(C(=O)NC4CCN(C)CC4)cc3OC)nc2N1N(C)CC (centres unmarked) [Compound 25, 4-[7-Ethyl-8-(ethyl-methyl-amino)-5-methyl-6-oxo-5,6,7,8-tetrahydro-pteridin-2-ylamino]-3-methoxy-N-(1-methyl-piperidin-4-yl)-benzamide]
- IC50 [6, 21]: > 1000 nM
- all other kinases were inhibited [20]: less than 10%

- IC50 [10, 22]: < 1000 nM
- IC50 [19]: < 500 nM
- IC50 [18, 23]: < 1000 nM
Compound: CCC1C(=O)N(C)c2cnc(Nc3ccc(C(=O)NCC4CCN(CC)CC4)cc3OC)nc2N1N(C)CC1CCC1 (centres unmarked) [Compound 34, 4-[8-(Cyclobutylmethyl-methyl-amino)-7-ethyl-5-methyl-6-oxo-5,6,7,8-tetrahydro-pteridin-2-ylamino]-N-(1-ethyl-piperidin-4-ylmethyl)-3-methoxy-benzamide]
- IC50 [6, 21]: > 1000 nM
